# Measurements as given in publication PMC11434026, “Development and Validation of an LC-MS/MS Assay for the Quantitation of MO-OH-Nap Tropolone in Mouse Plasma: Application to In Vitro and In Vivo Pharmacokinetic Studies” (Molecules, 2024).
# Values joined by “and” are separate entries in the source; they are usually repeats but may differ in a detail not shown here. Identical values can stand only once. Like-named read-outs stand apart in the source and are kept apart here.
# How the values were obtained:
# [1] = Thermodynamic aqueous solubility in PBS; format: physicochemical
# Experimental: After completion of incubation, the microcentrifuge tube was centrifuged at 10,000× g for 10 min. The supernatant (100 μL) was mixed with an equal volume of ACN and centrifuged again at 10,000× g for 10 min. The supernatant was further diluted 80× times with mobile phase and transferred to autosampler vials and analyzed by LC-MS/MS.
# [2] = In vitro metabolic stability in rat liver microsomes; format: in vitro ADME; details: RLM
# Experimental: (§1) Metabolic stability was assessed using mouse, rat, and human liver microsomes (XenoTech, LLC, Lenexa, KS, USA) for phase I metabolism. Briefly, A reaction solution was prepared by mixing […] of PBS (100 mM, pH 7.4), 25 µL of microsomal protein (20 mg/mL), MgCl2 (5 µL; 10 mM), and 50 µL of NADPH (2 mM). The final volume (0.5 mL) was pre-incubated for 10 min in a 37 °C water bath at 60 rpm. An aliquot of MO-OH-Nap (2 µL from 1 µg/mL stock) was spiked into the above solution to initiate the reaction. Aliquots of (50 µL) were collected at time intervals (0, 5, 15, 20, 30, 45, and 60 min) and quenched with 300 µL of ACN, […]. Afterwards, 10 µL of IS stock (1.0 µg/mL) was spiked in each sample then vortexed (5 min) and centrifuged at 10,800 rpm (13,000× g) for 15 min. Samples were vortexed and centrifuged at 10,800 rpm (13,000× g) for 15 min, the supernatant was collected and transferred to an HPLC vial and 10 µL were injected into the LC-MS/MS system. Testosterone and diclofenac were used as positive and negative controls to ensure that liver microsomes and incubation conditions were appropriate for conducting metabolism studies.
# CD-1 mice = system: CD-1 mice; set-up: method as in PMID 30612055; details: up to 9.4 mg/kg intravenously three times weekly; cited from earlier work
# [3] = Tissue distribution after single IP dose in CD-1 mice; format: in vivo, mouse; details: for concentration at 2 h: female, CD-1, mouse, 2 h after single IP 5 mg/kg
# Experimental: MO-OH-Nap was dissolved in a 5% DMSO, 45% w/v hydroxypropyl-β-cyclodextrin solution in PBS (final concentration 0.625 mg/mL MO-OH-Nap). MO-OH-Nap (5 mg/kg) was administered IP. After dosing, approximately 100 µL of blood was collected in Lithium-Heparin-Microvette 300 µL Capillary Blood Collection Tube (SARSTEDT AG& Co., Nümbrecht, Germany) from the maxillary vein at 5, 15, 30 min and 1, 2, 4, 6, 8, 24, and 48 h. Two blood time points were collected from every mouse and the third time point was the terminal time point, for a total of three time points from each mouse (5 mice/group/per time point). Blood was centrifuged at 4000× g at 4 °C for 10 min to extract plasma. The collected plasma samples were stored at −80 °C until analysis. The specified tissues including liver, lungs, kidney, spleen, heart, and brain were collected at terminal times of 2, 8, 24 and 48 h after dosing. Tissue samples were rinsed with PBS to remove excess blood and blotted with filter paper. After weighing, each tissue sample was individually homogenized with de-ionized water using a TissueLyser II (Qiagen Science, Louisville, KY, USA). A dilution factor of five was used for liver, spleen, brain, lungs, and kidney while the heart was homogenized at a 6-fold dilution factor. All tissues were stored at −80 °C until analysis. Plasma concentrations (ng/mL) and tissue concentrations (ng/g) were determined for each time point collected using LC-MS/MS analysis.
# [4] = Plasma pharmacokinetics after single IP dose in CD-1 mice; format: in vivo, mouse; details: for Cmax / Vd/F / AUC: 5 mg/kg
# Experimental: Female CD-1 mice,6–8-week-old, with weights ranging from 20 to 25 g were housed in the UNMC animal facility, at a temperature of 23–24 °C, relative humidity of 40–70%, and 12/12-h light/dark cycles. Mice were left to acclimatize to laboratory conditions for 7 days prior to experimental day. MO-OH-Nap was dissolved in a 5% DMSO, 45% w/v hydroxypropyl-β-cyclodextrin solution in PBS (final concentration 0.625 mg/mL MO-OH-Nap). MO-OH-Nap (5 mg/kg) was administered IP. After dosing, approximately 100 µL of blood was collected in Lithium-Heparin-Microvette 300 µL Capillary Blood Collection Tube (SARSTEDT AG& Co., Nümbrecht, Germany) from the maxillary vein at 5, 15, 30 min and 1, 2, 4, 6, 8, 24, and 48 h. Two blood time points were collected from every mouse and the third time point was the terminal time point, for a total of three time points from each mouse (5 mice/group/per time point). Blood was centrifuged at 4000× g at 4 °C for 10 min to extract plasma. The collected plasma samples were stored at −80 °C until analysis. The pharmacokinetics of MO-OH-Nap were determined using non-compartmental (NCA) pharmacokinetics analysis, utilizing Phoenix® WinNonlin software version 8.2 (Certara Corporation, Mountain View, CA, USA). The Cmax and Tmax were determined from visual inspection of the concentration time data. The AUC0_∞ was estimated using the linear trapezoidal method from 0 time point to last time point (0-tlast) and extrapolation from last time point to infinity based on the observed concentration at the last time point divided by the terminal elimination rate constant (k). The t1/2, CL/F and Vd/F were calculated using Equation (10), Equation (11) and Equation (12), respectively. (10) t1/2=0.693/k (11) CL=Dose/AUC0_∞ (12) Vd=Dose /k×AUC0_∞
# [5] = In vitro metabolic stability in human liver microsomes; format: in vitro ADME; details: HLM
# Experimental: as §1
# [6] = female, mouse, CD-1 mice, single IP 5 mg/kg, plasma
structure (smiles),measurement,setting,value
"O=c1c(O)ccccc1-c1ccc2ccccc2c1 [MO-OH-Nap, MO-OH-Nap tropolone]",solubility class per USP,[1]; PBS pH 7.4,partially soluble and very slightly soluble
same,solubility at 24 h,"[1]; phosphate buffered saline (PBS), PBS pH 7.4, 24 h",20.2 µg/mL and 80.1 µM
same,metabolic depletion,"[2]; NADPH, 60 min",< 15%
same,parent drug remaining,[2]; all time points to 60 min,> 95%
same,"tolerability (blood counts, renal and hepatic functions, body weight)",CD-1 mice,well-tolerated
same,detection in all harvested tissue,[3]; 48 h after single IP 5 mg/kg,detected
same,concentration at 2 h,"[3]; brain, read-out: tissue concentration, brain",51 ng/g
same,concentration at 2 h,"[3]; heart, read-out: tissue concentration, heart",115 ng/g
same,concentration at 2 h,"[3]; kidney, read-out: tissue concentration, kidney",750 ng/g
same,concentration at 2 h,"[3]; liver, read-out: tissue concentration, liver",1390 ng/g
same,concentration at 2 h,"[3]; lungs, read-out: tissue concentration, lungs",181 ng/g
same,concentration at 2 h,"[3]; spleen, read-out: tissue concentration, spleen",745 ng/g
same,detectability in plasma,[4]; 48 h after single IP 5 mg/kg,detectable
same,Cmax,"[4]; CD-1 mice, single IP 5 mg/kg, plasma",3040.9 ng/mL
same,Vd/F,"[4]; CD-1 mice, single IP 5 mg/kg","43,727.1 mL/kg"
same,AUC,"[4]; female, CD-1, mouse, plasma, ip, CD-1 mice, single IP 5 mg/kg, plasma, read-out: AUC0_last",2750 ng·h/mL
same,AUC,"[4]; female, CD-1, mouse, plasma, ip, CD-1 mice, single IP 5 mg/kg, plasma, read-out: AUC0_∞",2860 ng·h/mL
same,Cmax,"[4]; female, CD-1, mouse, plasma, ip, CD-1 mice, single IP 5 mg/kg, plasma, read-out: Cmax",3040 ng/mL
same,Vd/F,"[4]; female, CD-1, mouse, plasma, ip, CD-1 mice, single IP 5 mg/kg, read-out: Vd/F",43.3 L/kg
same,CL/F,"[4]; female, mouse, plasma, CD-1 mice, single IP 5 mg/kg",29.8 mL/min/kg
same,Tmax,[4]; [6],0.3 h
same,half-life,[4]; [6],17.7 h
same,metabolic depletion,"[5]; NADPH, 60 min",< 15%
same,parent drug remaining,[5]; all time points to 60 min,> 95%
